{
  "source": "patent US7138361B2",
  "about": "“Herbicidal heterocycles” (E. I. du Pont de Nemours and Company, priority 2000, dated 2006)",
  "assay_type_in_all_cases": "in vivo",
  "key": {"[1]": {"system": "lambsquarters (Chenopodium album)", "test": "Test C preemergence", "settings": "for Plant response rating, Lambsquarters: scale 0 to 100, 0 no effect, 100 complete control", "method_in_brief": "(§1)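 Each compound was dissolved in a non-phytotoxic solvent system containing a surfactant and sprayed either on freshly planted seeds (preemergence) or on young plants, 2 to 18 cm high (postemergence). Ratings after 12 to 14 greenhouse days ran from 0, no effect, to 100, complete control.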"}, "[2]": {"system": "soybean (Glycine max)", "test": "Test C preemergence", "settings": "preemergence; for Plant response rating, Soybean: scale 0 to 100, 0 no effect, 100 complete control", "method_in_brief": "as §1"}, "[3]": {"system": "kochia (Kochia scoparia)", "test": "Test C preemergence", "settings": "for Plant response rating, Kochia: scale 0 to 100, 0 no effect, 100 complete control; for Plant response rating (0 to 100), Kochia: visual evaluation after 12 to 14 days", "method_in_brief": "as §1"}, "[4]": {"system": "corn (Zea mays)", "test": "Test C preemergence", "settings": "for Plant response rating, Corn: scale 0 to 100, 0 no effect, 100 complete control; for Plant response rating (0 to 100), Corn: visual evaluation after 12 to 14 days", "method_in_brief": "as §1"}, "[5]": {"system": "yellow nutsedge (Cyperus esculentus)", "test": "Test C preemergence", "settings": "for Plant response rating, Nutsedge: scale 0 to 100, 0 no effect, 100 complete control", "method_in_brief": "as §1"}, "[6]": {"system": "pigweed (Amaranthus retroflexus)", "test": "Test C preemergence", "settings": "preemergence; for Plant response rating, Pigweed: scale 0 to 100, 0 no effect, 100 complete control", "method_in_brief": "as §1"}, "[7]": {"system": "johnsongrass (Sorghum halepense)", "test": "Test C preemergence", "settings": "for Plant response rating, Johnsongrass: scale 0 to 100, 0 no effect, 100 complete control; for Plant response rating (0 to 100), Johnsongrass: visual evaluation after 12 to 14 days", "method_in_brief": "as §1"}, "[8]": {"system": "Nightshade", "test": "Test C preemergence", "settings": "scale 0 to 100, 0 no effect, 100 complete control"}, "[9]": {"system": "woolly cupgrass (Eriochloa villosa)", "test": "Test C preemergence", "settings": "for Plant response rating, Cupgrass, Woolly: scale 0 to 100, 0 no effect, 100 complete control; for Plant response rating (0 to 100), Cupgrass, Woolly: visual evaluation after 12 to 14 days", "method_in_brief": "as §1"}, "[10]": {"system": "wild oat (Avena fatua)", "test": "Test B postemergence", "settings": "13 to 15 days", "method_in_brief": "(§2)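 Greenhouse test: chemicals are formulated in a surfactant-containing non-phytotoxic solvent and applied either preemergence to planted seeds or postemergence to plants 2 to 18 cm tall. Response is rated visually versus controls after 13 to 15 days, 0 meaning no effect and 100 complete control.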"}, "[11]": {"system": "corn (Zea mays)", "test": "Test B postemergence", "settings": "13 to 15 days", "method_in_brief": "as §2"}, "[12]": {"system": "barnyardgrass (Echinochloa crus-galli)", "test": "Test B postemergence", "settings": "13 to 15 days", "method_in_brief": "as §2"}, "[13]": {"system": "wheat (Triticum aestivum)", "test": "Test B postemergence", "settings": "13 to 15 days", "method_in_brief": "as §2"}, "[14]": {"system": "smallflower flatsedge (Cyperus difformis)", "test": "Test C flooded paddy test", "settings": "for Flatsedge plant response rating: Flooded Paddy, scale 0 to 100, 0 no effect, 100 complete control; for Plant response rating, Flatsedge: flooded paddy test, scale 0 to 100 (0 no effect, 100 complete control)", "method_in_brief": "(§3)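 2-leaf-stage plants, flooded paddy; treated; greenhouse 12–14 days; compared with controls by eye; rated 0–100 (0 none, 100 complete control).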"}, "[15]": {"system": "duck salad (Heteranthera limosa)", "test": "Test C flooded paddy test", "settings": "for Ducksalad plant response rating: Flooded Paddy, scale 0 to 100, 0 no effect, 100 complete control; for Plant response rating, Ducksalad: flooded paddy test, scale 0 to 100 (0 no effect, 100 complete control)", "method_in_brief": "as §3"}, "[16]": {"system": "barnyardgrass (Echinochloa crus-galli)", "test": "Test C flooded paddy test", "settings": "for Barnyardgrass plant response rating: Flooded Paddy, scale 0 to 100, 0 no effect, 100 complete control; for Plant response rating, Barnyardgrass: flooded paddy test, scale 0 to 100 (0 no effect, 100 complete control)", "method_in_brief": "as §3"}, "[17]": {"system": "rice (Oryza saliva)", "test": "Test C flooded paddy test", "settings": "for Rice plant response rating: Flooded Paddy, scale 0 to 100, 0 no effect, 100 complete control; for Plant response rating, Rice: flooded paddy test, scale 0 to 100 (0 no effect, 100 complete control)", "method_in_brief": "as §3"}, "[18]": {"system": "Nightshade", "test": "Test C preemergence", "settings": "Rate 500 g/ha, visual evaluation after 12 to 14 days"}, "[19]": {"system": "Sunflower", "test": "Test C preemergence", "settings": "scale 0 to 100, 0 no effect, 100 complete control"}, "[20]": {"settings": "preemergence, Rate 500 g/ha, visual evaluation after 12 to 14 days"}, "[21]": {"settings": "Rate 500 g/ha, visual evaluation after 12 to 14 days"}, "[22]": {"settings": "Rate 125 g/ha, scale 0 (no effect) to 100 (complete control)"}, "[23]": {"settings": "Rate 500 g/ha, scale 0 to 100, 0 is no effect, 100 is complete control"}},
  "data": [
    {"molecule": "CCOC(=O)c1cccc(N2CCC(n3ccc(C(C)(C)C)n3)C2=O)c1", "note": "(stereo not drawn) [Compound 72]", "values": [
      {"measurement": "Plant response rating, Lambsquarters", "setting": "[1]; Rate 62 g/ha", "value": 0},
      {"measurement": "Plant response rating (0 to 100), Lambsquarters", "setting": "[1]; [20]", "value": 100},
      {"measurement": "Plant response rating, Lambsquarters", "setting": "[1]; preemergence, Rate 125 g/ha", "value": 100},
      {"measurement": "Plant response rating, Lambsquarters", "setting": "[1]; preemergence, Rate 250 g/ha", "value": 100},
      {"measurement": "Plant response rating (0 to 100), Soybean", "setting": "[2]; [21]", "value": 20},
      {"measurement": "Plant response rating, Soybean", "setting": "[2]; Rate 125 g/ha", "value": 0},
      {"measurement": "Plant response rating, Soybean", "setting": "[2]; Rate 250 g/ha", "value": 0},
      {"measurement": "Plant response rating, Kochia", "setting": "[3]; Rate 62 g/ha", "value": 30},
      {"measurement": "Plant response rating (0 to 100), Kochia", "setting": "[3]; preemergence, Rate 250 g/ha", "value": 90},
      {"measurement": "Plant response rating (0 to 100), Kochia", "setting": "[3]; preemergence, Rate 500 g/ha", "value": 100},
      {"measurement": "Plant response rating, Kochia", "setting": "[3]; preemergence, Rate 125 g/ha", "value": 100},
      {"measurement": "Plant response rating, Corn", "setting": "[4]; Rate 62 g/ha", "value": 0},
      {"measurement": "Plant response rating (0 to 100), Corn", "setting": "[4]; preemergence, Rate 250 g/ha", "value": 0},
      {"measurement": "Plant response rating (0 to 100), Corn", "setting": "[4]; preemergence, Rate 500 g/ha", "value": 0},
      {"measurement": "Plant response rating, Corn", "setting": "[4]; preemergence, Rate 125 g/ha", "value": 0},
      {"measurement": "Plant response rating, Nutsedge", "setting": "[5]; Rate 62 g/ha", "value": 0},
      {"measurement": "Plant response rating (0 to 100), Nutsedge", "setting": "[5]; [20]", "value": 20},
      {"measurement": "Plant response rating, Nutsedge", "setting": "[5]; preemergence, Rate 125 g/ha", "value": 0},
      {"measurement": "Plant response rating, Nutsedge", "setting": "[5]; preemergence, Rate 250 g/ha", "value": 20},
      {"measurement": "Plant response rating (0 to 100), Pigweed", "setting": "[6]; [21]", "value": 100},
      {"measurement": "Plant response rating, Pigweed", "setting": "[6]; Rate 125 g/ha", "value": 100},
      {"measurement": "Plant response rating, Pigweed", "setting": "[6]; Rate 250 g/ha", "value": 0},
      {"measurement": "Plant response rating, Johnsongrass", "setting": "[7]; Rate 62 g/ha", "value": 0},
      {"measurement": "Plant response rating (0 to 100), Johnsongrass", "setting": "[7]; preemergence, Rate 250 g/ha", "value": 0},
      {"measurement": "Plant response rating (0 to 100), Johnsongrass", "setting": "[7]; preemergence, Rate 500 g/ha", "value": 40},
      {"measurement": "Plant response rating, Johnsongrass", "setting": "[7]; preemergence, Rate 125 g/ha", "value": 0},
      {"measurement": "Plant response rating, Nightshade", "setting": "[8]; Rate 62 g/ha", "value": 30},
      {"measurement": "Plant response rating, Nightshade", "setting": "[8]; Rate 125 g/ha", "value": 10},
      {"measurement": "Plant response rating, Nightshade", "setting": "[8]; Rate 250 g/ha", "value": 30},
      {"measurement": "Plant response rating, Cupgrass, Woolly", "setting": "[9]; Rate 62 g/ha", "value": 0},
      {"measurement": "Plant response rating (0 to 100), Cupgrass, Woolly", "setting": "[9]; preemergence, Rate 250 g/ha", "value": 80},
      {"measurement": "Plant response rating (0 to 100), Cupgrass, Woolly", "setting": "[9]; preemergence, Rate 500 g/ha", "value": 70},
      {"measurement": "Plant response rating, Cupgrass, Woolly", "setting": "[9]; preemergence, Rate 125 g/ha", "value": 10},
      {"measurement": "Plant response rating, Wild Oat", "setting": "[10]; [22]", "value": 0},
      {"measurement": "Plant response rating, Wild Oat", "setting": "[10]; [23]", "value": 0},
      {"measurement": "Plant response rating, Corn", "setting": "[11]; [22]", "value": 0},
      {"measurement": "Plant response rating, Corn", "setting": "[11]; [23]", "value": 0},
      {"measurement": "Plant response rating, Barnyardgrass", "setting": "[12]; [22]", "value": 30},
      {"measurement": "Plant response rating, Barnyardgrass", "setting": "[12]; [23]", "value": 70},
      {"measurement": "Plant response rating, Wheat", "setting": "[13]; [22]", "value": 0},
      {"measurement": "Plant response rating, Wheat", "setting": "[13]; [23]", "value": 0},
      {"measurement": "Flatsedge plant response rating", "setting": "[14]; Rate 250 g/ha", "value": 90},
      {"measurement": "Flatsedge plant response rating", "setting": "[14]; Rate 500 g/ha", "value": 100},
      {"measurement": "Plant response rating, Flatsedge", "setting": "[14]; Rate 62 g/ha", "value": 60},
      {"measurement": "Plant response rating, Flatsedge", "setting": "[14]; Rate 125 g/ha", "value": 90},
      {"measurement": "Ducksalad plant response rating", "setting": "[15]; Rate 250 g/ha", "value": 90},
      {"measurement": "Ducksalad plant response rating", "setting": "[15]; Rate 500 g/ha", "value": 90},
      {"measurement": "Plant response rating, Ducksalad", "setting": "[15]; Rate 62 g/ha", "value": 40},
      {"measurement": "Plant response rating, Ducksalad", "setting": "[15]; Rate 125 g/ha", "value": 80},
      {"measurement": "Barnyardgrass plant response rating", "setting": "[16]; Rate 250 g/ha", "value": 50},
      {"measurement": "Barnyardgrass plant response rating", "setting": "[16]; Rate 500 g/ha", "value": 80},
      {"measurement": "Plant response rating, Barnyardgrass", "setting": "[16]; Rate 62 g/ha", "value": 0},
      {"measurement": "Plant response rating, Barnyardgrass", "setting": "[16]; Rate 125 g/ha", "value": 50},
      {"measurement": "Rice plant response rating", "setting": "[17]; Rate 250 g/ha", "value": 40},
      {"measurement": "Rice plant response rating", "setting": "[17]; Rate 500 g/ha", "value": 50},
      {"measurement": "Plant response rating, Rice", "setting": "[17]; Rate 62 g/ha", "value": 0},
      {"measurement": "Plant response rating, Rice", "setting": "[17]; Rate 125 g/ha", "value": 20},
      {"measurement": "Plant response rating (0 to 100), Nightshade", "setting": "[18]", "value": 60},
      {"measurement": "Plant response rating, Sunflower", "setting": "[19]; Rate 125 g/ha", "value": 20},
      {"measurement": "Plant response rating, Sunflower", "setting": "[19]; Rate 250 g/ha", "value": 20}
    ]}
  ]
}
